Measurements reported in publication PMC10878397, “Development of Potent Dual BET/HDAC Inhibitors via Pharmacophore Merging and Structure-Guided Optimization” (ACS Chemical Biology, 2024).
Values joined by “and” are separate entries in the source; they are usually repeats but may differ in a detail not shown here. Equal values may be shown once. Read-outs that look alike come from different tables or passages of the source.

Columns and labels:
BRD4 BD2 [1] = target: T1, BRD4 BD2 (Homo sapiens, UniProt O60885); experiment: NanoBRET target engagement assay (HEK293T); assay type: cell-based; design: BRD4 bromodomains and full-length HDACs were obtained as plasmids cloned in-frame with a terminal NanoLuc fusion; host or cells: HEK293T; details: intact cells
Experimental: (§1) The assay was performed as described previously.[17],[59] In brief, BRD4 bromodomains and full-length HDACs were obtained as plasmids cloned in-frame with a terminal NanoLuc fusion (Promega). Plasmids were transfected into HEK293T cells using FuGENE HD (Promega, E2312), and proteins were allowed to express for 20 h. Serially diluted inhibitor and the corresponding NanoBRET Tracer (Promega) at a concentration determined previously as the tracer KD, app were pipetted into white 384-well plates (Greiner #781207) for BRD assays or white 96-well plates (Corning #3600) for HDAC using an Echo acoustic dispenser (Labcyte). The corresponding protein-transfected cells were added and reseeded at a density of 2 × 10^5 cells/mL after trypsinization and resuspended in Opti-MEM without phenol red (Life Technologies). The system was allowed to equilibrate for 2 h at 37 °C/5% CO2 prior to BRET measurements. To measure BRET, NanoBRET NanoGlo substrate + Extracellular NanoLuc Inhibitor (Promega, N2540) was added as per the manufacturer’s protocol, and filtered luminescence was measured on a PHERAstar plate reader (BMG Labtech) equipped with a luminescence filter pair (450 nm BP filter (donor) and 610 nm LP filter (acceptor)). For lysed-mode NanoBRET experiments, digitonin (Promega, #G9441) was added as per the manufacturer’s instructions to a final concentration of […].

BRD4 BD1 [2] = target: T2, BRD4 BD1 (Homo sapiens, UniProt O60885); experiment: NanoBRET target engagement assay (HEK293T); assay type: cell-based; design: BRD4 bromodomains and full-length HDACs were obtained as plasmids cloned in-frame with a terminal NanoLuc fusion; host or cells: HEK293T; details: intact cells
Experimental: as §1

HDAC2 = HDAC2 (Homo sapiens, UniProt Q92769); experiment: NanoBRET target engagement assay (HEK293T); assay type: cell-based; design: BRD4 bromodomains and full-length HDACs were obtained as plasmids cloned in-frame with a terminal NanoLuc fusion; host or cells: HEK293T
Experimental: (§2) The assay was performed as described previously.[17],[59] In brief, BRD4 bromodomains and full-length HDACs were obtained as plasmids cloned in-frame with a terminal NanoLuc fusion (Promega). Plasmids were transfected into HEK293T cells using FuGENE HD (Promega, E2312), and proteins were allowed to express for 20 h. […] The corresponding protein-transfected cells were added and reseeded at a density of 2 × 10^5 cells/mL after trypsinization and resuspended in Opti-MEM without phenol red (Life Technologies). The system was allowed to equilibrate for 2 h at 37 °C/5% CO2 prior to BRET measurements. […] For lysed-mode NanoBRET experiments, digitonin (Promega, #G9441) was added as per the manufacturer’s instructions to a final concentration of […].

HDAC1 = HDAC1 (Homo sapiens, UniProt Q13547); experiment: NanoBRET target engagement assay (HEK293T); assay type: cell-based; design: BRD4 bromodomains and full-length HDACs were obtained as plasmids cloned in-frame with a terminal NanoLuc fusion; host or cells: HEK293T
Experimental: as §2

HDAC3 = HDAC3 (Homo sapiens, UniProt O15379); experiment: NanoBRET target engagement assay (HEK293T); assay type: cell-based; design: BRD4 bromodomains and full-length HDACs were obtained as plasmids cloned in-frame with a terminal NanoLuc fusion; host or cells: HEK293T; details: intact cells
Experimental: as §2

[3] = tested on: histone H3 K9/K14 acetylation in PaTu8988T cells; experiment: Western blot of histone H3 K9/K14 acetylation; assay type: cell-based; details: 48 h, 1 μM inhibitor or concentration series
Experimental: Protein samples were prepared in RIPA buffer (9806S, Cell Signaling Technology) containing a protease inhibitor cocktail (Roche). Proteins were separated in SDS-polyacrylamide gels, transferred to nitrocellulose membranes with a Trans-Blot Turbo Transfer System (Bio-Rad), and incubated with antibodies dissolved in TBS buffer containing 5% BSA and 0.1% Tween20. The following primary antibodies were used: rabbit anti-β-actin (ab8227, Abcam) and rabbit antiacetyl-histone H3 (Lys9/Lys14; 9677, Cell Signaling Technology). Primary antibodies were recognized by a peroxidase-coupled secondary antibody (Jackson), and signals were detected by chemiluminescence.

BRD4 BD2 [4] = target: T1, BRD4 BD2; experiment: DSF thermal shift assay; assay type: binding; design: purchased in-house (SGC Frankfurt recombinant bromodomain DSF panel); details: for Mean Tm BRD4 (2), bromodomain panel: selectivity panel, technical triplicates
Experimental: (§3) The effects of inhibitor binding on the apparent melting temperature of recombinant bromodomains were determined by DSF in a 96-well plate (Starlab) at a protein concentration of 2 μM with 10 μΜ compound in buffer containing 25 mM HEPES, pH 7.5, 150 mM NaCl, and 0.5 mM TCEP. […] Protein unfolding profiles were recorded using an MX3005P real-time qPCR instrument (Agilent; excitation/emission filters = 492/610 nm) while increasing the temperature from 25 to 95 °C at a heating rate of 3 °C/min. Tm values were calculated after fitting the fluorescence curves to the Boltzmann equation. Differences in melting temperature upon compound binding are given as ΔTm = Tm (protein with inhibitor) – Tm (protein with DMSO control). Measurements were performed in triplicates.

BRD4 BD1 [5] = target: T2, BRD4 BD1; experiment: DSF thermal shift assay; assay type: binding; design: purchased in-house (SGC Frankfurt recombinant bromodomain DSF panel); details: for Mean Tm BRD4 (1), bromodomain panel: selectivity panel, technical triplicates
Experimental: as §3

Chain of HDAC3 (O15379 whole entry, the tested form may be a part): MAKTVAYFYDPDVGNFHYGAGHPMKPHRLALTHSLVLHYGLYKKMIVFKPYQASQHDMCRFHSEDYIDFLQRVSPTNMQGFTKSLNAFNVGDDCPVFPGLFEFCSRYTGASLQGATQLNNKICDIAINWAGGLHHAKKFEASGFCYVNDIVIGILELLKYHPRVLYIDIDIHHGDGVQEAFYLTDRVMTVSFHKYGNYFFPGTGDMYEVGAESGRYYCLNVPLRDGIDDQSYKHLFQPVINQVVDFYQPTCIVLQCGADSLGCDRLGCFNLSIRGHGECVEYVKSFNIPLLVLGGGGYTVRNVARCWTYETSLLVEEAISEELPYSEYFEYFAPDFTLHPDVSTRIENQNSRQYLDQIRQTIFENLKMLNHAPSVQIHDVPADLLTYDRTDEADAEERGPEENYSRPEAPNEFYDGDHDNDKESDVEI
Chain of HDAC1 (Q13547 whole entry, the tested form may be a part): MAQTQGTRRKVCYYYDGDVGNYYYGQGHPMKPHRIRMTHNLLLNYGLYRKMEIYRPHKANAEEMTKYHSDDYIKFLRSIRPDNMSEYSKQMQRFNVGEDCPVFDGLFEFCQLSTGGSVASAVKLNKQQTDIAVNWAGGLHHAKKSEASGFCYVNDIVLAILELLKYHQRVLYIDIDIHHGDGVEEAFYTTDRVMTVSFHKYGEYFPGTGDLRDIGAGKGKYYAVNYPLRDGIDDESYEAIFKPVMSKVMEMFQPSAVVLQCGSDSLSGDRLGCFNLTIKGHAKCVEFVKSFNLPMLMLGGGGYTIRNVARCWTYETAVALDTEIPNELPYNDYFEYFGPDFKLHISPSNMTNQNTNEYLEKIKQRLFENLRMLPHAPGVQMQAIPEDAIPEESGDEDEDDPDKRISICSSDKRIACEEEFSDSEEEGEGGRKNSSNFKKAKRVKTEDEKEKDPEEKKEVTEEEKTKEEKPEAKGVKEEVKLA
Chain of HDAC2 (Q92769 whole entry, the tested form may be a part): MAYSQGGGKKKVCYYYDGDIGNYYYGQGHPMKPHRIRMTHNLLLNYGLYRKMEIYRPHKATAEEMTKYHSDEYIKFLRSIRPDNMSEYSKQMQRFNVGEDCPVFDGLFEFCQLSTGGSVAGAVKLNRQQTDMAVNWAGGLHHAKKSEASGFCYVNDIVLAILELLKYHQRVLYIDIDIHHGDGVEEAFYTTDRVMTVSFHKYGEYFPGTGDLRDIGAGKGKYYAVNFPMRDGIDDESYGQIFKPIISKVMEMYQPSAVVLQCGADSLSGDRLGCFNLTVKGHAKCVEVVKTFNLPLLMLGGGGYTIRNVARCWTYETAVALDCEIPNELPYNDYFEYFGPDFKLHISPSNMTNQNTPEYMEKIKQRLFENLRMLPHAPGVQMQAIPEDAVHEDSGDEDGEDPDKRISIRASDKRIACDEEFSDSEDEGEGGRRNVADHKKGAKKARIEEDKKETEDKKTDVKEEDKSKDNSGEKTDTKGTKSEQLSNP

ΔTm at 10 µM (BRD4 BD2 [4]; 10 μM compound, 2 μM protein, read-out: DSF ΔTm BRD4 BD2)	ΔTm at 10 µM (BRD4 BD1 [5]; 10 μM compound, 2 μM protein, read-out: DSF ΔTm BRD4 BD1)	SMILES	EC50 (BRD4 BD2 [1])	EC50 (BRD4 BD1 [2])	EC50 (HDAC2; intact cells)	EC50 (HDAC1; intact cells)	EC50 (HDAC3)	inhibition of histone H3 K9/K14 deacetylation (Western blot) [3]	DSF ΔTm BRD4 BD2 (BRD4 BD2 [4]; 10 μM compound, 2 μM protein)	ΔTm at 10 µM (BRD4 BD2 [4]; read-out: DSF ΔTm BRD4 BD2, 10 μM compound, 2 μM protein)	Mean Tm BRD4 (2), bromodomain panel (BRD4 BD2 [4]; 10 μM compound)	DSF ΔTm BRD4 BD1 (BRD4 BD1 [5]; 10 μM compound, 2 μM protein)	ΔTm at 10 µM (BRD4 BD1 [5]; read-out: DSF ΔTm BRD4 BD1, 10 μM compound, 2 μM protein)	Mean Tm BRD4 (1), bromodomain panel (BRD4 BD1 [5]; 10 μM compound)	EC50 (HDAC2; lysed-mode)	EC50 (HDAC1; lysed-mode)
		Cn1cc(-c2ccc(C(=O)Nc3ccccc3N)cc2)c2cc[nH]c2c1=O [NB462]	190 ± 20 nM	250 ± 20 nM	1600 ± 700 nM	2600 ± 1100 nM	32000 ± 16000 nM	significantly more potent than CI-944	4.5 ± 0.1 K	4 to 5 °C	4.6 ± 0.1 K	3.9 ± 0.4 K	4 to 5 °C	3.6 ± 0.1 K		
4.7 ± 0.4 °C	4.2 ± 0.4 °C	Cn1cc(-c2ccc(C(=O)Nc3ccccc3N)nc2)c2cc[nH]c2c1=O [NB500]	160 ± 40 nM	240 ± 20 nM	2500 ± 700 nM	4800 ± 2300 nM	> 50000 nM	much less potent								
		Cn1cc(-c2ccc(C(=O)Nc3cc(-c4ccccc4)ccc3N)cc2)c2cc[nH]c2c1=O [NB503]	520 ± 180 nM	420 ± 110 nM	360 ± 120 nM	190 ± 30 nM	6500 ± 2800 nM	concentration-dependent			5.3 ± 0.2 K			5.5 ± 0.1 K		
		Cn1cc(-c2ccc(C(=O)Nc3cc(-c4ccccc4)ccc3N)nc2)c2cc[nH]c2c1=O [NB512]	250 ± 120 nM	360 ± 130 nM	98 nM and 100 nM	110 ± 30 nM	13600 ± 4800 nM	more potent inhibitor overall							37 nM	27 nM
